Patent US6605426B1, “Compounds, methods of screening, and in vitro and in vivo uses involving anti-apoptotic genes and anti-apoptotic gene products” (priority 1998, dated 2003)
Residues, ends and D or L forms follow the SMILES beside them. *: point of attachment. Cbz = O=C(OCc1ccccc1)*; CH2F = FC*

How the values were obtained:
Type in all cases: cell-based, human
[1] = tested on: Fas-mediated apoptotic signaling in HeLa cells; assay: Western blot of Fas-mediated apoptotic signaling events in HeLa clones
Experimental: Cells were trypsinized, washed in Tris buffered saline, resuspended in a lysis buffer (150 mM NaCl, 5 mM EDTA, 50 mM Tris.HCl pH 8.0, 1% Triton X-100), freshly supplemented with phenylmethylsulfonyl fluoride (0.1 mM), leupeptin ([…]) and pepstatin (1 μg/mL), incubated on ice for 30 minutes, and centrifuged at 16,000 g for 15 minutes, at 4° C. Cytochrome c and procaspase 9 were detected in S-1 00 fractions of cells (Li et al., 1997, which is incorporated herein by reference).
The intracellular polypeptides were detected by Western blot analysis. Samples containing protein were electrophoretically resolved under reduced conditions, on Laemmli SDS-PAGE (Novex), after equal amounts of protein were loaded per well of the gel, detected using a standard Western blot protocol and a luminol-based ECL Western Blotting system (Amersham). The following antibodies were used in the Western blot analysis: anti-human Bid C-20 (Santa Cruz Biotechnology), 5F7 anti-human caspase 8 (Upstate Biotechnology), C210 anti-PARP (Biomol), 7H8.2C12 anti-cytochrome c (Pharmigen), B40 anti-human caspase 9 (Pharmigen), FITC-anti-mouse IgG (Sigma), HRP-anti-mouse IgG-F, (Pierce), HRP-anti-mouse IgG2b (Boehringer Mannheim), HRP-anti-rabbit IgG, and HRP-anti-mouse Ig (Amersham).
The impact of pUL37S on biochemical events involved in Fas-mediated apoptosis was examined by comparing control HeLa/pcDNA3 cells, which are sensitive to anti-Fas antibody plus CHX, to HeLa clones expressing either pUL37S or cellular Bcl-xL, both of which are resistant to Fas-mediated apoptosis. Ligation of Fas triggers the recruitment and activation of caspase 8 through the adapter molecule FADD (Ashkenazi et al., 1998). This process was not impaired by pUL37S since pro-caspase 8 was processed in pUL37S-expressing cells similar to its processing in either Bcl-xL-expressing cells, or control cells within 4 h of the exposure to anti-Fas antibody plus CHX, but not CHX alone (FIG. 16A). Fas-signaling is connected to mitochondrial events in apoptosis through Bid, a pro-apoptotic BH3 polypeptide that is proteolyzed by caspase 8 and subsequently translocates to mitochondria where it triggers cytochrome c release (Li et al., 1998; Lu et al., 1998).

[2] = tested on: HeLa cells; assay: Transient transfection apoptosis assay in HeLa cells (anti-Fas antibody+CHX or TNF-α+CHX); conditions: for protection of HeLa cells at very low plasmid concentration: 0.1% to 1% of the total DNA transfected, mixed with control vector, anti-Fas antibody+CHX; for β-gal levels after anti-Fas antibody+CHX treatment: plasmids diluted several hundred fold, β-gal marker plasmid
Experimental: Tumor necrosis factor receptor 1 (TNF-R1)-mediated apoptosis was induced by exposure of HeLa and MRC-5 cells to tumor necrosis factor-α (TNF-α) (Sigma, 10-60 ng/mL)+CHX (10-30 μg/mL). Fas-mediated apoptosis was induced by exposure of cells to an anti-Fas antibody (Coulter, 7C11 antibody at 0.2-4 μg/mL)+CHX (10-30 μg/mL). The degree of cell death was determined by the visual scoring of surviving cells, in representative fields, under a phase microscope. A similar degree of cell death occurred in fibroblasts when examined 5 to 28 h after the start of exposure, or a similar degree of cell death occurred in HeLa cells when examined 9-28 h after the start of exposure. Further, a similar degree of cell death for a given reagent was produced when any concentration within the range indicated above was used.
The degree of cell death in cells transfected with an indicator plasmid expressing E. coli β-galactosidase was determined by either a β-galactosidase ELISA (Boehringer Mannheim), in accordance with the manufacturer's recommendations, or by visually scoring, under a microscope, positive blue cells, expressing β-galactosidase, after staining them with X-gal.
HeLa cells were transiently co-transfected with an expression plasmid vector, pME18S, carrying a polynucleotide sequence encoding IE1 or IE2 (FIG. 5, “IE1” and “IE2,” respectively), and a vector carrying the β-galactosidase gene (pCMVβ, Clontech). As a positive control, HeLa cells were transiently co-transfected with pCMVβ and a vector carrying a polynucleotide sequence encoding an anti-apoptotic polypeptide, such as the adenovirus E1B 19K or baculovirus p35.
Expression of IE1 (approx. 72 kDa) and IE2 (approx. 86 kDa) in the transfected HeLa cells was confirmed by Western blot analysis, by immunofluorescence visually examined under a fluorescence microscope, and by transactivation activity which led to an elevation of the vector-CMV-promoter-driven β-galactosidase expression which was increased 2- to 5-fold, as measured by a β-galactosidase ELISA (data not shown). Apoptosis was induced by incubating the transfected cells for 24 h with either TNF-α+CHX, or anti-Fas antibody+CHX. The surviving cells were stained with X-gal, a chromogenic substrate of β-galactosidase, and then the blue-stained cells were scored (FIG. 5).
To identify HCMV genes that can suppress apoptosis induced by Fas-ligation, the present inventors established a transient transfection assay in HeLa cells. The HeLa cells can be transfected at much higher efficiency than MRC-5 cells and are similar in their sensitivity towards anti-Fas antibody and TNF-α treatment. Enhanced survival of HeLa cells following anti-Fas antibody+CHX treatment was detected by elevated β-galactosidase (β-gal) levels produced by a transfected β-gal marker plasmid.
The deletion mutants were transiently expressed in HeLa cells, cultured in DMEM supplemented with 10% fetal bovine serum, and assayed for their ability to block Fas- or TNF-R1-mediated apoptosis. Transfections and apoptosis assays were performed as previously described (Goldmacher et al., 1999). Briefly, cells were transiently transfected with the expression vectors (purified with a Qiagen plasmid purification kit) using SuperFect transfection reagent (Qiagen) in accordance with the manufacturer's protocol. After 24 hours, cells were exposed to anti-Fas 7C11 antibody (Coulter, 0.5 μg/ml)+cyclohexamide (Sigma, 10 μg/ml) for 24 hours.
A genomic DNA library was cloned into pZeoSV2(+) plasmid (Invitrogen). Ten cosmids, pCM1007, pCM1015, pCM1017, pCM1029, pCM1035, pCM1039, pCM1040, pCM1052, pCM1058, and pCM1072, covering the AD169 genome (Fleckenstein et al., 1982, which is incorporated herein by reference), and pON2601 Toledo cosmid (Cha et al., 1996, which is incorporated herein by reference) containing unique HCMV sequences, were mixed in equal amounts and partially digested with Sau3AI (New England Biolabs, Beverly, Mass.). […]

[3] = tested on: MRC-5 cells; conditions: for cell death of MRC-5 cells: within the first 24 h of exposure, anti-Fas and TNF-α only in the presence of CHX, phase microscope
Experimental: Tumor necrosis factor receptor 1 (TNF-R1)-mediated apoptosis was induced by exposure of HeLa and MRC-5 cells to tumor necrosis factor-α (TNF-α) (Sigma, 10-60 ng/mL)+CHX (10-30 μg/mL). Fas-mediated apoptosis was induced by exposure of cells to an anti-Fas antibody (Coulter, 7C11 antibody at 0.2-4 μg/mL)+CHX (10-30 μg/mL). The degree of cell death was determined by the visual scoring of surviving cells, in representative fields, under a phase microscope.
The time-course of apoptosis was also analyzed by examining the expression of phosphatidylserine on the cell surface, as detected with FITC-labeled Annexin V, and by a dye-exclusion test using propidium iodide. These two tests were performed with an ApoAlert Annexin V Apoptosis kit (Clontech) in accordance with the manufacturer's recommendations, on a flow cytometer (FACScan, Becton-Dickinson).
These experiments were performed on MRC-5, a normal human fibroblast cell line which can be productively infected by HCMV in cell culture. The present inventors first examined whether infection of cells with HCMV alters the cell's sensitivity to Fas- or TNF-R1-mediated apoptosis.

[4] = tested on: HCMV-infected MRC-5 cells; assay: Apoptosis resistance of HCMV-infected MRC-5 cells in presence of viral DNA polymerase inhibitors; conditions: concentration sufficient to inhibit viral replication; challenge two days later with anti-Fas antibody+CHX or TNF-α+CHX
Description: To discriminate between these two mechanisms, MRC-5 cells were infected with HCMV in the presence (or absence) of inhibitors of viral DNA polymerase, such as phosphonacetic acid or gancyclovir (Huang, 1975; Crumpacker, 1996) which prevent the expression of the late genes of HCMV in the host cell (Mocarski, 1996).
MRC-5 cells uninfected (FIG. 3A) or infected with HCMV (FIG. 3B) were either untreated, or treated with either phosphonacetic acid or gancyclovir at a concentration sufficient to inhibit viral replication (Huang, 1975; Crumpacker, 1996). Two days later these cells were challenged with either anti-Fas antibody+CHX or TNF-α+CHX (FIGS. 3A and 3B). Although nearly all non-infected MRC-5 cells underwent apoptosis, irrespective of the presence or absence of phosphonacetic acid or gancyclovir, a major fraction of cells exposed to HCMV survived the challenge with the apoptotic stimuli in the absence of the viral DNA polymerase inhibitors. Further, a somewhat smaller but still large fraction of cells survived in the presence of the inhibitors. Thus, the insensitivity of HCMV-infected cells to apoptosis was not abolished by these drugs.

Q: Which “cleavage of PARP” value ([1]; 4 h anti-Fas antibody plus CHX) does the source give for “Bcl-xL: human cellular anti-apoptotic polypeptide” here?
A: inhibited

Q: What about the cytochrome c release ([1]; 4 h anti-Fas antibody plus CHX) of the same molecule?
A: not observed

Q: What about the “processing of procaspase 9” value ([1]; 4 h anti-Fas antibody plus CHX) of the same molecule?
A: inhibited

Q: And the “processing of pro-caspase 8” value ([1]; within 4 h of anti-Fas antibody plus CHX)?
A: processed

Q: And the “protection of HeLa cells at very low plasmid concentration” value (shortened to “protection of HeLa cells”) [2]?
A: detectable protection

Q: And the “β-gal levels after anti-Fas antibody+CHX treatment” value [2]?
A: enhanced β-gal levels

Q: For `C[C@@H]1C[C@@H]([C@H](O)CC2CC(=O)NC(=O)C2)C(=O)[C@@H](C)C1` [CHX, Cycloheximide], which “cell death of MRC-5 cells” value [3] is on record?
A: did not kill cells

Q: For `O=C(O)CP(=O)(O)O` [phosphonacetic acid], which “effect on insensitivity of HCMV-infected cells to apoptosis” value [4] is on record?
A: not abolished

Q: Which “protection of HeLa cells” value [2] does the source give for “Bcl-2: human anti-apoptotic gene product” here?
A: detectable protection

Q: With TNF-α as the molecule, how does the “cell death of MRC-5 cells” value [3] read?
A: died

Q: For `COC(=O)C[C@H](NC(=O)[C@H](C)NC(=O)[C@@H](NC(=O)OCc1ccccc1)C(C)C)C(=O)CF` [Z-VADfmk] (Cbz-Val-Ala-Asp(OMe)-CH2F), which “effect on Fas- and TNF-R1-mediated MRC-5 cell death” value ([3]; caspase inhibitor added with anti-Fas antibody or TNF-α +CHX) is on record?
A: prevented

Q: How did the “effect on insensitivity of HCMV-infected cells to apoptosis” value [4] turn out when `Nc1nc(O)c2ncn(COC(CO)CO)c2n1` [gancyclovir] was run?
A: not abolished

B1: p35: baculovirus anti-apoptotic polypeptide, positive control (protein, UniProt P08160 1-299, looked up)
Early 35 kDa protein: MCVIFPVEIDVSQTIIRDCQVDKQTRELVYINKIMNTQLTKPVLMMFNISGPIRSVTRKNNNLRDRIKSKVDEQFDQLERDYSDQMDGFHDSIKYFKDEHYSVSCQNGSVLKSKFAKILKSHDYTDKKSIEAYEKYCLPKLVDERNDYYVAVCVLKPGFENGSNQVLSFEYNPIGNKVIVPFAHEINDTGLYEYDVVAYVDSVQFDGEQFEEFVQSLILPSSFKNSEKVLYYNEASKNKSMIYKALEFTTESSWGKSEKYNWKIFCNGFIYDKKSKVLYVKLHNVTSALNKNVILNTIK
Q: For B1, which “protection of HeLa cells” value [2] is on record?
A: detectable protection

Q: What about the “survival of transfected cells after apoptosis induction” value ([2]; HeLa cells, 24 h with either TNF-α+CHX or anti-Fas antibody+CHX, X-gal stained cells scored) of the same molecule?
A: survived

Q: What about the “β-gal levels after anti-Fas antibody+CHX treatment” value [2] of the same molecule?
A: enhanced β-gal levels
